Patent publication US10201564B2, “Methods of using inhaled nitric oxide gas for treatment of acute respiratory distress syndrome in children” (Mallinckrodt Hospital Products IP Limited, priority 2014, dated 2019)
Where “and” joins values, the source holds several entries; their conditions need not be identical. Identical values can stand only once. Entries after “also recorded” stand apart in the source; their conditions may differ.

Key:
[1] = system: patients with moderately severe Acute Lung Injury (ALI); test: Adult ALI/ARDS study: safety results (adverse events); assay type: in vivo, human; conditions: initial 28-day study period
Protocol: A large-scale, randomized, blinded, placebo-controlled study was carried out in the Intensive Care Units (ICUs) of 46 US hospitals to evaluate the efficacy of low-dose (5 ppm) iNO in 385 patients with moderately severe Acute Lung Injury (ALI). The primary endpoint of this study was number of days alive and off assisted breathing.
Safety results for the initial 28-day study period have been reported and are summarized briefly here. A total of 630 adverse events (AEs) were reported for patients treated with iNO versus 666 events for those who received placebo. Respiratory system AEs occurred in 51% versus 61% of patients receiving iNO and placebo, respectively, primarily due to higher frequencies of pneumonia, pneumothorax, and apnea in the placebo group. Frequency of other AEs was similar in both groups.
Patients were randomly assigned to receive either inhaled placebo gas (nitrogen) or 5 ppm of iNO (INO Therapeutics Inc., Port Allen, La.). All patients, healthcare professionals, and investigators were blinded to the assigned treatment. Inhaled NO was administered via INOvent® delivery system (Datex-Ohmeda, Madison, Wis.) that blended treatment gas (nitrogen or NO at 100-ppm balance nitrogen) 1:20 with ventilator gases to achieve a target ppm value in the inspiratory limb of the ventilator.

[2] = system: pediatric subjects with acute hypoxemic respiratory failure (AHRF); test: Pediatric AHRF study, nitric oxide 5 ppm versus placebo: efficacy and subject outcome; assay type: in vivo, human
Protocol: This was a prospective, multicenter, randomized, double-blind, placebo-controlled, parallel-group study of the safety and efficacy of inhaled nitric oxide in pediatric subjects with acute hypoxemic respiratory failure (AHRF). The subjects were randomized to receive either 5 ppm inhaled nitric oxide or placebo.
Nitric Oxide for inhalation at 5 ppm was administered continuously into the inspiratory limb of the ventilator circuit in mechanically ventilated subjects using a blinded version of the INOvent® delivery system.
Subjects received 100% treatment gas (nitric oxide 5 ppm or placebo [nitrogen gas]) until Day 28 or extubation, whichever occurred first.
Placebo consisting of 100% Grade 5 nitrogen gas was administered continuously into the inspiratory limb of the ventilator circuit in mechanically ventilated subjects using a blinded version of the INOvent® delivery system at a rate equivalent to a 5 ppm dose of nitric oxide.
This was a prospective, multicenter, randomized, double-blind, placebo-controlled, Phase III study to assess the effects of nitric oxide for inhalation in the treatment of acute hypoxic respiratory failure (AHRF) in pediatric subjects. The study population consisted of male and female pediatric subjects, aged 44 weeks postconceptional age to 16 years age, who were admitted to the pediatric intensive care unit (PICU) and who required intubation because of AHRF. The inclusion/exclusion criteria are described in the Patients section below.
Standardized ventilatory management and weaning procedures were used. Ventilatory management was used based on an “open lung approach” using positive end-expiratory pressure (PEEP) to increase lung volume and limiting tidal volumes to reduce plateau pressures. Subjects received nitric oxide for inhalation at 5 ppm or placebo (100% Grade 5 nitrogen gas) into the inspiratory limb of the ventilator circuit using a blinded version of the INOvent® delivery system. The subjects were treated until Day 28 or extubation, whichever occurred first. Subjects were assessed daily using a spontaneous breathing trial, according to the institution's standard of care. Arterial blood gases (ABG), ventilator settings, methemoglobin, oxygenation index, systolic blood pressure, diastolic blood pressure, Pediatric Risk of Mortality (PRISM) III score, and subject positioning (prone or supine) were performed/recorded at specified times during the study. Selected centers also performed plasma cytokine assays, bronchoalveolar lavage fluid (BALF) assays, and a 6-month follow-up assessment.
Inclusion criteria for patients were as follows: • 1. 44 weeks post-conceptional age to 16 years of age • 2. Oxygenation Index (OI)≥12 cm H2O/mmHg (as determined by two separate measurements taken 30 minutes to 4 hours apart) • 3. Recent chest x-ray (within 24 hours) showing at least unilateral infiltrates • 4. Mechanically ventilated (oral or nasopharyngeal)<7 days
Exclusion criteria for patients were as follows: • 1. Immunocompromised • 2. Received a bone marrow transplant • 3. Active oncological condition • 4. Persistent right to left intracardiac shunt • 5. Cardiovascular surgery within the last 14 days • 6. Status asthmaticus • 7. Decision by primary care physician not to provide full support (futility) • 8. Received treatment with nitric oxide for inhalation or other investigational medications with 24 hours prior to study initiation. • 9. Chronically ventilated • 10. Pregnant Study Design and Schedule of Assessments:
Extubation was considered when: • i. Pressure support of <10 cm H2O • ii. FiO2<0.60 • iii. PEEP<6 cm H2O • iv. Nitric oxide has been discontinued for 30 minutes
Extubation occurred within 12 hours of meeting the above criteria. If a patient met the above criteria but was not extubated within 12 hours, the reason (i.e. airway protection, surgery, secretions clearance, etc.) was documented.

[3] = 5 ppm, discharge evaluation, N 26
[4] = 5 ppm, in words, approached statistical significance

Question: For `[N]=O` [Nitric Oxide, nitric oxide], which “Frequency of other (non-respiratory) AEs versus placebo” value [1] is on record?
Answer: similar

Question: And the “Respiratory system AEs, patients” value ([1]; placebo 61%)?
Answer: 51%

Question: What about the “adverse events (AEs) reported, total” value ([1]; placebo 666) of the same molecule?
Answer: 630

Question: And the “completed 28 days of the study or successfully extubated” value ([2]; 5 ppm)?
Answer: 21 (80.8%) n (%)

Question: What about the “Days on supplemental O2, Median” value ([2]; 5 ppm, N 10) of the same molecule?
Answer: 18.1 days

Question: What about the “Number of days on supplemental O2, Mean (SD)” value ([2]; 5 ppm, N 10) of the same molecule?
Answer: 19.6 (13.4) ^ days and 19.6 (13.4) days

Question: What about the “Days originally intubated, Median” value ([2]; 5 ppm, N 20) of the same molecule?
Answer: 13.7 days

Question: And the “Number of days originally intubated, Mean (SD)” value ([2]; 5 ppm, N 20)?
Answer: 13.6 (6.8) ^ days and 13.6 (6.8) days

Question: What about the “Days in PICU, Median” value ([2]; 5 ppm, N 22) of the same molecule?
Answer: 17.3 days

Question: And the “Number of days in PICU, Mean (SD)” value ([2]; 5 ppm, N 22)?
Answer: 17.8 (8.3) ^ days and 17.8 (8.3) days

Question: What about the Clinical sepsis [2, 3] of the same molecule?
Answer: 4 (15.4%) n (%)

Question: And the “Died (cause of death related to pulmonary condition)” value [2, 3]?
Answer: 0 (0) ^ n (%)

Question: What about the “ECMO at any time during treatment” value [2, 3] of the same molecule?
Answer: 0 (0) ^ n (%)

Question: What about the “HFOV at any time during treatment” value [2, 3] of the same molecule?
Answer: 11 (42.3%) n (%)

Question: And the “Intubated on Day 28” value [2, 3]?
Answer: 2 (7.7%) n (%)

Question: And the Pneumothorax [2, 3]?
Answer: 3 (11.5%) n (%)

Question: And the “Receiving supplemental O2 on Day 28” value [2, 3]?
Answer: 11 (42.3%) n (%)

Question: And the Survival [2, 3]?
Answer: 23 (88.5%) n (%)

Question: And the “VAP (ventilator-associated pneumonia)” value [2, 3]?
Answer: 5 (19.2%) n (%)

Question: What about the “days in the PICU versus placebo” value ([2]; 5 ppm, in words) of the same molecule?
Answer: lower

Question: And the “duration (mean number of days) of supplemental oxygen versus placebo” value ([2]; 5 ppm, in words)?
Answer: higher

Question: What about the “frequency of extracorporeal membrane oxygenation versus placebo” value ([2]; 5 ppm, in words) of the same molecule?
Answer: lower

Question: And the “frequency of high frequency oscillatory ventilation versus placebo” value ([2]; 5 ppm, in words)?
Answer: lower

Question: What about the “frequency of pneumothorax versus placebo” value ([2]; 5 ppm, in words) of the same molecule?
Answer: lower

Question: What about the “frequency of ventilator-associated pneumonia at discharge versus placebo” value ([2]; 5 ppm, in words) of the same molecule?
Answer: higher

Question: And the “mean duration (number of days) of intubation versus placebo” value ([2]; 5 ppm, in words)?
Answer: lower

Question: What about the “duration of mechanical ventilation (MV)” value [2, 4] of the same molecule?
Answer: shortened

Question: What about the rate of survival [2, 4] of the same molecule?
Answer: improved

Question: What about the “rate of ECMO free survival versus placebo” value ([2]; 5 ppm, in words, listed as iNO) of the same molecule?
Answer: significantly greater; also recorded: significantly higher

Question: And the “Day 28 (completed 28 days)” value ([2]; 5 ppm, n = 26, subject outcome)?
Answer: 1 (3.8%) n (%)

Question: What about the Death ([2]; 5 ppm, n = 26, subject outcome) of the same molecule?
Answer: 2 (7.7%) n (%)

Question: What about the Successful extubation ([2]; 5 ppm, n = 26, subject outcome) of the same molecule?
Answer: 20 (76.9%) n (%)

Question: What about the Total discontinued ([2]; 5 ppm, n = 26, subject outcome) of the same molecule?
Answer: 5 (19.2%) n (%)

Question: And the “rate of ECMO free survival” value ([2]; 5 ppm, placebo 15 of 29, p<0.01)?
Answer: 22 of 24

Question: And the “Survival at 28 days” value ([2]; 5 ppm, placebo 21 of 29, p=0.07)?
Answer: 22 of 24

Question: What about the survival rate ([2]; 5 ppm, placebo 72.4%) of the same molecule?
Answer: 88.5%

Question: And the “oxygenation index (OI)” value ([2]; 4 hours, 5 ppm, placebo 26.1+/−19.5, p=0.09)?
Answer: 14.3+/−5.9

Question: What about the “oxygenation index (OI)” value ([2]; 12 hours, 5 ppm, placebo 24.5+/−22.0, p=0.04) of the same molecule?
Answer: 14.7+/−6.0

Question: What about the “oxygenation index (OI)” value ([2]; 24 hours, 5 ppm, placebo 16.7+/−9.9, p=0.53) of the same molecule?
Answer: 15.2+/−10.8

Question: What about the “number of days that a child is ventilator-free at 28 days after the start of iNO therapy” value ([2]; in words) of the same molecule?
Answer: increased
